ChEMBL document CHEMBL3414499, “Characterization of two distinct structural classes of selective aldehyde dehydrogenase 1A1 inhibitors” (J Med Chem, 2015)
The source made the active and inactive calls. No cut-off for these calls is given here.

Experiments:
[1] = biological target: T1, Retinal dehydrogenase 2 (Homo sapiens) (UniProt O94788); experiment: Activation of recombinant human ALDH1A2 using propionaldehyde as substrate at 100 uM preincubated for 2 mins with NAD+ followed by substrate addition by UV-Vis spectrophotometric analysis
T1 sequence (whole entry): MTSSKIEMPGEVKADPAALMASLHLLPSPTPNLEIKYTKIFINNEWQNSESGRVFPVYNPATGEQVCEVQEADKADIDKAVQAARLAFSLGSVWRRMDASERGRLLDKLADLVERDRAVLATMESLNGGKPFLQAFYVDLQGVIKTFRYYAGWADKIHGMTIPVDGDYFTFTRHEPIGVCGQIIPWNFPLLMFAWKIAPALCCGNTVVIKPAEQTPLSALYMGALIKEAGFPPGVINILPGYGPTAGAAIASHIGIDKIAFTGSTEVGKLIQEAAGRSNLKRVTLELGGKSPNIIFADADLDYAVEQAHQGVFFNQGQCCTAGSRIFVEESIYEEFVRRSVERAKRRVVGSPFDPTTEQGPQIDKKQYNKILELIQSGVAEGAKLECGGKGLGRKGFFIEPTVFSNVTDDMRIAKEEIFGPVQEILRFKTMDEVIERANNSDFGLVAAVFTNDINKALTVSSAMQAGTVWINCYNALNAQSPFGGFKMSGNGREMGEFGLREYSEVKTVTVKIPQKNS

[2] = biological target: T2, Retinaldehyde dehydrogenase 3 (Homo sapiens) (UniProt P47895); experiment: Activation of recombinant human ALDH1A3 using propionaldehyde as substrate at 20 uM preincubated for 2 mins with NAD+ followed by substrate addition by UV-Vis spectrophotometric analysis
T2 sequence (whole entry): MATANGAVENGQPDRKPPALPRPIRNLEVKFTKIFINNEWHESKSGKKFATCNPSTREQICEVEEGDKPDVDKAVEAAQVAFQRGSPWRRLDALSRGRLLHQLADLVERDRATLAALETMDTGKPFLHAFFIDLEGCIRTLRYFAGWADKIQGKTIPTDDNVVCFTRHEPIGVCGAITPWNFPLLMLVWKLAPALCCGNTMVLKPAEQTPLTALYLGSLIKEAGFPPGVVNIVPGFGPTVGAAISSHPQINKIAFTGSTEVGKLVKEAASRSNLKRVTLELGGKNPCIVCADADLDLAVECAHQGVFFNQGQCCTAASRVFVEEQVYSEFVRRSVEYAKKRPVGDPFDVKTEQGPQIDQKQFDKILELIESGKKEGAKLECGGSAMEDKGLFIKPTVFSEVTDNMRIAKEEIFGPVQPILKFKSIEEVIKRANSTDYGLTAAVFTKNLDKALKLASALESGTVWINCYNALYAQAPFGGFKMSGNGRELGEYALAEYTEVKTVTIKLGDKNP

[3] = biological target: T3, Aldehyde dehydrogenase, dimeric NADP-preferring (Homo sapiens) (UniProt P30838); experiment: Activation of recombinant human ALDH3A1 using benzaldehyde as substrate at 20 uM preincubated for 2 mins with NAD+ followed by substrate addition by UV-Vis spectrophotometric analysis
T3 sequence (whole entry): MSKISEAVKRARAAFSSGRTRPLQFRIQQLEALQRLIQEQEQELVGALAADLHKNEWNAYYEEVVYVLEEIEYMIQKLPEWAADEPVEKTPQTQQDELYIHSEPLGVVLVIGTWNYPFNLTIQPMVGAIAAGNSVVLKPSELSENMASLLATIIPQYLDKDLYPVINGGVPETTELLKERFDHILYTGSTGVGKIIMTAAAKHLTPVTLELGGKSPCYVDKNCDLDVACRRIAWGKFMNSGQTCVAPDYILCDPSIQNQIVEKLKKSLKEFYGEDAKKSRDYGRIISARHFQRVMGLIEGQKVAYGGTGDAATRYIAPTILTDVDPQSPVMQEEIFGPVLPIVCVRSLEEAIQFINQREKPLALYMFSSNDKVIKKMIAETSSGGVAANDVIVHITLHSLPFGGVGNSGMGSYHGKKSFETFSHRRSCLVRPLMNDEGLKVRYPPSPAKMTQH

[4] = biological target: T2, Retinaldehyde dehydrogenase 3 (Homo sapiens); experiment: Activation of recombinant human ALDH1A3 using propionaldehyde as substrate at 100 uM preincubated for 2 mins with NAD+ followed by substrate addition by UV-Vis spectrophotometric analysis
[5] = biological target: T3, Aldehyde dehydrogenase, dimeric NADP-preferring (Homo sapiens); experiment: Inhibition of recombinant human ALDH3A1 using benzaldehyde as substrate at 100 uM preincubated for 2 mins with NAD+ followed by substrate addition by UV-Vis spectrophotometric analysis
[6] = biological target: T1, Retinal dehydrogenase 2 (Homo sapiens); experiment: Activation of recombinant human ALDH1A2 using propionaldehyde as substrate at 20 uM preincubated for 2 mins with NAD+ followed by substrate addition by UV-Vis spectrophotometric analysis
[7] = biological target: T2, Retinaldehyde dehydrogenase 3 (Homo sapiens); experiment: Inhibition of recombinant human ALDH1A3 using propionaldehyde as substrate at 100 uM preincubated for 2 mins with NAD+ followed by substrate addition by UV-Vis spectrophotometric analysis
[8] = biological target: T4, Aldehyde dehydrogenase X, mitochondrial (Homo sapiens) (UniProt P30837); experiment: Inhibition of recombinant human ALDH1B1 using propionaldehyde as substrate at 100 uM preincubated for 2 mins with NAD+ followed by substrate addition by UV-Vis spectrophotometric analysis
T4 sequence (whole entry): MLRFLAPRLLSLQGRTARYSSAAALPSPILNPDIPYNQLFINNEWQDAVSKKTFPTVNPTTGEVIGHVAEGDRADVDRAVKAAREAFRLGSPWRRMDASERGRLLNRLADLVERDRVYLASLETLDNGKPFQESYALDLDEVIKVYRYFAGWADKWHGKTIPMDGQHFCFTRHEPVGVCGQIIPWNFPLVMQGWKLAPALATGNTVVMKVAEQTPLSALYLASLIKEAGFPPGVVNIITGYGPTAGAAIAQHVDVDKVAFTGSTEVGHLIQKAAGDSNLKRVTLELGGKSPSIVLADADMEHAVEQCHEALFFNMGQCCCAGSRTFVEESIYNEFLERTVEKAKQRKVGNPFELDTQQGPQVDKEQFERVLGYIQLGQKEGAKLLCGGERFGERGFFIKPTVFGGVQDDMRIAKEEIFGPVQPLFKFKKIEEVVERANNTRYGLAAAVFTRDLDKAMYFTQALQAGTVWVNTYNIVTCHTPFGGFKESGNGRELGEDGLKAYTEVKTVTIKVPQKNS

[9] = biological target: T5, Aldehyde dehydrogenase, mitochondrial (Homo sapiens) (UniProt P05091); experiment: Inhibition of recombinant human ALDH2 using propionaldehyde as substrate at 100 uM preincubated for 2 mins with NAD+ followed by substrate addition by UV-Vis spectrophotometric analysis
T5 sequence (whole entry): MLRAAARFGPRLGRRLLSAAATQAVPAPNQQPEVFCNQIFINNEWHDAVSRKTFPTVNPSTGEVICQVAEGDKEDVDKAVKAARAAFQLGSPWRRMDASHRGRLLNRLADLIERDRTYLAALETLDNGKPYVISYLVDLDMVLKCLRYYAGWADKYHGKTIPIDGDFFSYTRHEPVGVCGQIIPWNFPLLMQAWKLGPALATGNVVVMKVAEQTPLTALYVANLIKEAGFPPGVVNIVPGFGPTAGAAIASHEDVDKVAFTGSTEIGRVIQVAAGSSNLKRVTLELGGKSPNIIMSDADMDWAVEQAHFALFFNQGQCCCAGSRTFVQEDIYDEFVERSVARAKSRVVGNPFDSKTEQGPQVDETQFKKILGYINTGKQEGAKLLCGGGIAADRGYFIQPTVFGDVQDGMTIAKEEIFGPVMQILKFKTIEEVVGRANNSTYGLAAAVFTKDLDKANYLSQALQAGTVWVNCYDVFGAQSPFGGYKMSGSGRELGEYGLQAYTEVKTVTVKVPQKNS

[10] = biological target: T3, Aldehyde dehydrogenase, dimeric NADP-preferring (Homo sapiens); experiment: Activation of recombinant human ALDH3A1 using benzaldehyde as substrate at 100 uM preincubated for 2 mins with NAD+ followed by substrate addition by UV-Vis spectrophotometric analysis
[11] = biological target: T6, Aldehyde dehydrogenase 1A1 (Homo sapiens) (UniProt P00352); experiment: Inhibition of recombinant human ALDH1A1 using propionaldehyde as substrate at 100 uM preincubated for 2 mins with NAD+ followed by substrate addition by UV-Vis spectrophotometric analysis relative to control
T6 sequence (whole entry): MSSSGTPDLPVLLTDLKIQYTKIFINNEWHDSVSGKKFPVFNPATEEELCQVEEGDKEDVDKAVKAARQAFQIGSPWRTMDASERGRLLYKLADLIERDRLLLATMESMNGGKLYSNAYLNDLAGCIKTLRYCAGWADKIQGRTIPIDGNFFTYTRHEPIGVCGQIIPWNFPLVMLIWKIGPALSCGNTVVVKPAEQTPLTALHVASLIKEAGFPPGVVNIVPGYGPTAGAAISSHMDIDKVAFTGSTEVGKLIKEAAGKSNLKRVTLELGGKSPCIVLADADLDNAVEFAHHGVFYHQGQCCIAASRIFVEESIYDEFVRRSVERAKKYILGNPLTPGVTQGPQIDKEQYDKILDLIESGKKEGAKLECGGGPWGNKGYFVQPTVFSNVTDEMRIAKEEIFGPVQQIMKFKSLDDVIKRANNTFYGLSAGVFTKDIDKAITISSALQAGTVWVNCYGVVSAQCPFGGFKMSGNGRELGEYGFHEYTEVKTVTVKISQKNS

[12] = biological target: T1, Retinal dehydrogenase 2 (Homo sapiens); experiment: Inhibition of recombinant human ALDH1A2 using propionaldehyde as substrate at 100 uM preincubated for 2 mins with NAD+ followed by substrate addition by UV-Vis spectrophotometric analysis
[13] = biological target: T6, Aldehyde dehydrogenase 1A1 (Homo sapiens); experiment: Effect on recombinant human ALDH1A1 using propionaldehyde as substrate up to 250 uM preincubated for 2 mins with NAD+ followed by substrate addition by UV-Vis spectrophotometric analysis
[14] = biological target: T7, Aldehyde dehydrogenase, mitochondrial (Homo sapiens, UniProt P05091); experiment: Inhibition of recombinant human ALDH2 using propionaldehyde as substrate preincubated for 2 mins with NAD+ followed by substrate addition by UV-Vis spectrophotometric analysis
T7 sequence (P05091 whole entry): T5 sequence (whole entry)

[15] = biological target: T5, Aldehyde dehydrogenase, mitochondrial (Homo sapiens); experiment: Activation of recombinant human ALDH2 using propionaldehyde as substrate at 20 uM preincubated for 2 mins with NAD+ followed by substrate addition by UV-Vis spectrophotometric analysis
[16] = biological target: T8, Retinaldehyde dehydrogenase 3 (Homo sapiens, UniProt P47895); experiment: Inhibition of recombinant human ALDH1A3 using propionaldehyde as substrate preincubated for 2 mins with NAD+ followed by substrate addition by UV-Vis spectrophotometric analysis
T8 sequence (P47895 whole entry): T2 sequence (whole entry)

SMILES	Activity [2] [%]	Activity [3] [%]	Activity [4]	inhibition [5]	inhibition [7]	further results
CCN1CCN(Cc2nc3c(c(=O)n(C)c(=O)n3C)n2CCC(C)C)CC1	< 10	< 10		inactive	inactive	
Cn1c(=O)c2[nH]cnc2n(C)c1=O				inactive	inactive	inhibition [8]: inactive; inhibition [9]: inactive
Cn1c(=O)c2c(ncn2C)n(C)c1=O				inactive	inactive	inhibition [11]: inactive; inhibition [12]: inactive; Activity [13]: inactive; inhibition [8]: inactive; inhibition [9]: inactive
CC(C)CCn1c(CN2CCC(C)CC2)nc2c1c(=O)n(C)c(=O)n2C	< 10	< 10		inactive		IC50 [14]: > 100 µM; Activity [15]: < 10%; IC50 [16]: > 100 µM
CC(C)CCn1c(CN2CCC(C(N)=O)CC2)nc2c1c(=O)n(C)c(=O)n2C	< 10	< 10	Active			Activity [10]: Active

Second part, led by results:

Activity [2] [%]	Activity [3] [%]	Activity [4]	inhibition [5]	inhibition [7]	SMILES	further results
< 10	< 10	Active	inactive		Cc1cccc(Cn2c(CN3CCN(C(=O)c4ccco4)CC3)nc3c2c(=O)n(C)c(=O)n3C)c1	Activity [1]: Active; Activity [6]: < 10%
< 10	< 10	Active			Cc1ccc(Cn2c(CN3CCN(c4ccccc4)CC3)nc3c2c(=O)n(C)c(=O)n3C)cc1	Activity [10]: Active
< 10	< 10	Active	inactive		CCC1CCCCN1Cc1nc2c(c(=O)n(C)c(=O)n2C)n1Cc1cccc(C)c1 (centres undefined)	
